{"source": "paper PMC7391724", "about": "(Scientific Reports, 2020)", "key": {"[1]": {"design": "method as in PMID 19276288", "details": "clinical studies, untargeted agent ref 19; cited from earlier work"}, "KB tumor xenografts": {"tested_on": "KB tumor xenografts", "assay": "KB tumor xenograft in nu/nu mice", "assay_type": "in vivo", "details": "SJG-136 0.3 mg/kg SIW x 2 weeks", "protocol": "Four- to eight-week-old female nu/nu mice and rats (Harlan Sprague Dawley, Inc.), were maintained on a standard 12-h light–dark cycle and fed ad libitum with a low-folate chow (Harlan Teklad diet #TD.01013, Madison, WI) for the duration of dosing and 1 week post dosing schedule. Mice and rats were then switched to Teklad Global 18% Rodent diet (Harlan Teklad diet #2018S) during the monitoring phase of the study. Parental KB, KB-CR2000 or KB-PR10 cells (1 × 10^6/100 µL per nu/nu mouse and 5 × 10^6/200 µL per nu/nu rat) were injected into the subcutis of the dorsal medial area. Mice were divided into groups of 5 and rats in groups of 3–4, and freshly prepared test articles were injected through the lateral tail vein under sterile conditions in a volume of 200 μL/20 g of PBS. In mice, intravenous treatments typically initiated on day 7 PTI when KB tumors were approximately 111–168 mm^3 in volume, on day 5 PTI when the KB-PR tumors were about 205–243 mm^3, and on day 6 PTI when the KB-CR tumors were around 98 to 168 mm^3. Treatments in rats were started on day 10 PTI when KB tumors were approximately 412–704 mm^3 in volume.\nAnimals in the control groups received no treatment. Growth of each subcutaneous tumor was followed by measuring the tumor 3 times per week during treatment and twice per week thereafter, until a maximum volume of 1,500 mm^3 for mice and 15,000 mm^3 for rats were reached. Tumors were measured in two perpendicular directions using Vernier calipers, and their volumes were calculated as V = 0.5 × L × W^2, where L = measurement of longest axis in mm and W = measurement of axis perpendicular to L in mm[16]. As a general measure of gross toxicity, changes in body weights were determined on the same schedule as tumor volume measurements. Survival of animals was monitored daily. Animals that were moribund (or unable to reach food or water) were euthanized by CO2 asphyxiation. Individual tumor response endpoints were reported in terms of tumor volume change. A partial response (PR) was defined as volume regression > 50% but with measurable tumor (> 2 mm^3) remaining at all times. Complete response (CR) was defined as a disappearance of measurable tumor mass (< 2 mm^3) at some point within 90 days after tumor implantation. Cures were defined as CRs without tumor regrowth within the 90-day study time frame."}}, "data": [{"compound": "C=C1C[C@H]2C=Nc3cc(OCCCOc4cc5c(cc4OC)C(=O)N4CC(=C)C[C@H]4C=N5)c(OC)cc3C(=O)N2C1", "note": "[SJG-136]", "values": [{"measurement": "clinical toxicity", "setting": "[1]", "result": "dose-limiting hepatotoxicity and vascular leak syndrome"}, {"measurement": "average weight loss", "setting": "KB tumor xenografts", "result": "~ 10%"}, {"measurement": "deaths, number of animals", "setting": "KB tumor xenografts; at 2 weeks post start of treatment, n=5", "result": "one"}, {"measurement": "CR (complete response), number of animals", "setting": "KB tumor xenografts; n=5", "result": 0}, {"measurement": "Cures, number of animals", "setting": "KB tumor xenografts; n=5", "result": 2}, {"measurement": "PR (partial response), number of animals", "setting": "KB tumor xenografts; n=5", "result": 2}]}]}
